Data from patent US20050227220A1, “Compositions and Methods for Evaluating and Designing Nuclear Receptor Ligands that Modulate Co-Regulator Affinity” (priority 2002, published 2005).
“Also recorded” adds a separate entry of the source.

Assays:
[1] = target: T1, PPARα LBD (Homo sapiens, UniProt Q07869); test: FRET assay: ligand effect on CBP fragment / NCoR ID-C binding to PPAR LBD; format: biochemical
T1 construct: made in house; host or cells: bacterial BL21-DE3, vector pRSETA
T1 sequence (Q07869 192-468): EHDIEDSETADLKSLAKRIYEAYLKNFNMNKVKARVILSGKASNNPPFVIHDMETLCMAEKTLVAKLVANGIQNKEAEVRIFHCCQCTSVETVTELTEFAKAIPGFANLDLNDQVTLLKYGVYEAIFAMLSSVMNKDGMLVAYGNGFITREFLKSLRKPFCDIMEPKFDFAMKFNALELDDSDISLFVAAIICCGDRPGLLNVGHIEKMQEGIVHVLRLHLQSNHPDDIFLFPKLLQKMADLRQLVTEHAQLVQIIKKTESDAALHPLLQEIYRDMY
Text: (§1) The experimentally determined α value is the ratio of cofactor affinities in the presence and absence of a saturating concentration of ligand. This analysis permits a direct comparison of the effects of compounds, independent of cofactor concentration and differences in coregulator affinity for the individual receptors. […] 98(9): p.
(§2) The effects of the coregulator environment on the apparent affinities and selectivities of various ligands were than examined. Experimentally determined pKs and the α values derived from the FRET assay were used to calculate the apparent affinity of the ligand for the receptor/cofactor complex (i.e. K/α).
(§3) FIG. 5 illustrates the effect of ligands on coactivator and corepressor binding to PPAR subtypes determined by FRET.

[2] = target: T2, PPARγ LBD (Homo sapiens, UniProt P37231); test: as above; format: biochemical; conditions: 10 nM PPAR LBD
T2 construct: made in house; host or cells: bacterial BL21-DE3, vector pRSETA
Text: as §1, §2, §3

[3] = target: T3, PPARδ LBD (Homo sapiens, UniProt Q03181); test: as above; format: biochemical
T3 construct: made in house; host or cells: bacterial BL21-DE3, vector pRSETA
T3 sequence (Q03181 139-441): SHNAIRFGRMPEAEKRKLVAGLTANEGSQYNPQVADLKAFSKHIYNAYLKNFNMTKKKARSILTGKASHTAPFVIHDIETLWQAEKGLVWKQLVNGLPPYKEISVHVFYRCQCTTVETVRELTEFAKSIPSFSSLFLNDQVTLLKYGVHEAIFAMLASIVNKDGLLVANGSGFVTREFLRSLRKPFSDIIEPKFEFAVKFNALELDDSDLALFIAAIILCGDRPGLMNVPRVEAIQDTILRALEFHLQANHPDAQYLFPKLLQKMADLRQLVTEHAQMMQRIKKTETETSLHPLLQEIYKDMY
Text: as §1, §2, §3

[4] = target: T4, full length human PPARα (Homo sapiens, UniProt Q07869); test: Mammalian two-hybrid assay (CV-1 cells); format: cell-based; conditions: VP16-PPARα, GAL4-NCoR (2239-2300), result in words
T4 construct: expressed in transfected cells; host or cells: CV-1 cells, vector pVP16 (Clonetech)
T4 sequence (Q07869 1-468): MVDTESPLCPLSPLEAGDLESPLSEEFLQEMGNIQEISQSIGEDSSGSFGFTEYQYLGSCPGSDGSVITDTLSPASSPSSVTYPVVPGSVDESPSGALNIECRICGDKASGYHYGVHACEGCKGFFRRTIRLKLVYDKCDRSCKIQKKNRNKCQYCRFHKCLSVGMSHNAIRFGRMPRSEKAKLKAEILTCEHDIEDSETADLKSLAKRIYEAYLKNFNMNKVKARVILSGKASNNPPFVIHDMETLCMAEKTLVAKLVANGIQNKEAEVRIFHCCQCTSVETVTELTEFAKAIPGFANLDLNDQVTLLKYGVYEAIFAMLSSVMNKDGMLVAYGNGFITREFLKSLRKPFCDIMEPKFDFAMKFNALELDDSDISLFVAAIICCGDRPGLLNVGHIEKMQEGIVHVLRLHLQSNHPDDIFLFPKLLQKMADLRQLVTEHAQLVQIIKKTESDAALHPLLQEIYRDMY
Text: (§4) Mammalian two-hybrid assays were used to examine the ability of the tyrosine-based class of PPAR ligands to promote association or dissociation of the co-activator CBP and the corepressor NCoR in the context of a cellular environment. The assays for the three PPAR subtypes used full length human PPARα, PPARγ2 or PPARδ fused to the activation domain of VP16 and previously identified interaction domains of CBP and NCoR fused to the DNA binding domain of GAL4.
(§5) Expression plasmids for the VP16-human PPAR constructs were prepared by inserting amplified cDNAs encoding full length PPARα, PPARγ2 and PPARδ fused to amino acids 410-490 of the VP16 viral activation domain, into the expression vector pVP16 (Clonetech). […] The reporter plasmid was (UAS)5-tk-SPAP, and the internal control plasmid for all transfections was β-galactosidase expression vector (pCH110, Amersham).
(§6) CV-1 cells were maintained in culture in DME high glucose medium supplemented with 10% FBS and 2 mM glutamine in a humidified incubator (5% CO2 in air) at 37° C. Cells were harvested 72 hours prior to experimental use and placed in phenol red free D-MEM/F-12 medium with 15 mM HEPES supplemented with 10% charcoal/dextran-treated FBS (HyClone, Logan, Utah). The cells were harvested and seeded at 2.0×10^4 cell per well in a 96-well plate the day prior to transfection. Cells were transfected for 16 hr using Lipofectamine (Life Technologies, Inc., Rockville, Md.) essentially according to the manufacturer's instructions. The total amount of DNA transfected into each well was 80 ng. Transfection mixtures contained 8 ng VP16-PPAR plasmid, 8 ng SPAP reporter, 25 ng of pCH110(β-galactosidase) control plasmid, 35 ng of pBluescript II KS+ (Clonetech) and 4 ng of either coactivator or corepressor plasmid. Transfection quantities for full length PPAR and cofactor plasmids were optimized to generate a signal that was half of the maximal activation. These conditions would allow for dissociation or association to be experimentally determined for each ligand evaluated. Stock solutions of drugs were prepated in DMSO and dilutions were made in phenol red-free D-MEM/F-12 with 15 mM HEPES supplemented with 10% charcoal stripped, delipidated, heat inactivated (62° C. for 35 min) bovine calf serum (Sigma, St. Louis, Mo.) such that the final concentration of DMSO was 0.1%. Transfection mixtures were aspirated and 100 μl, of medium containing drug was added to each well.

[5] = target: T5, full length human PPARδ (Homo sapiens, UniProt Q03181); test: Mammalian two-hybrid assay (CV-1 cells); format: cell-based; conditions: VP16-PPARδ, GAL4-NCoR (2239-2300), result in words
T5 construct: expressed in transfected cells; host or cells: CV-1 cells, vector pVP16 (Clonetech)
Text: as §4, §5, §6

[6] = target: T6, PPARδ LBD / RXRα LBD (Homo sapiens, UniProt Q03181); test: FRET assay: ligand effect on RXRα LBD binding to PPAR LBD; conditions: 10 nM PPAR LBD, 4 concentrations of RXR
T6 sequence (Q03181 139-441): T3 sequence (Q03181 139-441)
T6 sequence (P19793 225-462 partner limits assumed): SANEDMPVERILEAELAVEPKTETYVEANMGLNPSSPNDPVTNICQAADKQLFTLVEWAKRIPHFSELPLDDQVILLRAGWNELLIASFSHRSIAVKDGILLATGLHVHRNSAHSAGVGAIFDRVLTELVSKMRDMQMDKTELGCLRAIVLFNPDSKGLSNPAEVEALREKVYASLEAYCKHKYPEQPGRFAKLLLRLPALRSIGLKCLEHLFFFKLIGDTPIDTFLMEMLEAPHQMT

[7] = target: PPARα ligand binding domain (Homo sapiens, UniProt Q07869); test: Surface plasmon resonance: effect of compounds on co-repressor peptide binding to PPAR LBD; conditions: SPR equilibrium response, immobilized biotinylated peptides
Procedure: (§7) A surface plasmon resonance assay was used to further characterize the effects of PPAR ligands binding of peptides derived from the co-repressors NCOR and SMRT to the PPAR subtypes. Each peptide was biotinylated and immobilized on separate flow cells of a BlAcore sensor chip. Using a BIAcore instrument, fixed concentrations of each PPAR subtype ligand binding domain were incubated with varied concentrations of test compounds and injected over the peptide-derivatized sensor chip to determine the equilibrium binding response of the receptors for the immobilized peptides.
(§8) The binding of co-activator and co-repressor peptides with PPAR ligand binding domains and the effects of compounds on these interactions were determined by surface plasmon resonance using the Biacore 3000. Approximately 300 resonance units (RU) of biotinylated peptides were immobilized to individual flow cells of a streptavidin chip. All experiments were conducted at 25° C. at a flow rate of 10 μl/minute with a buffer containing 10 mM HEPES, pH 7.4, containing 0.15 M NaCl, 3 mM EDTA and 0.005% polysorbate-20. […] Binding was determined by measuring the equilibrium binding response 10 seconds before the end of the association phase minus the response from a flow cell with no immobilized peptide.
(§9) Each point is the average of three injections.

[8] = target: PPARγ ligand binding domain (Homo sapiens, UniProt P37231); test: as above; conditions: SPR equilibrium response, immobilized biotinylated peptides
Procedure: as §7, §8, §9

[9] = α = ratio of cofactor affinities in presence and absence of saturating ligand

T2 sequence (P37231 234-505): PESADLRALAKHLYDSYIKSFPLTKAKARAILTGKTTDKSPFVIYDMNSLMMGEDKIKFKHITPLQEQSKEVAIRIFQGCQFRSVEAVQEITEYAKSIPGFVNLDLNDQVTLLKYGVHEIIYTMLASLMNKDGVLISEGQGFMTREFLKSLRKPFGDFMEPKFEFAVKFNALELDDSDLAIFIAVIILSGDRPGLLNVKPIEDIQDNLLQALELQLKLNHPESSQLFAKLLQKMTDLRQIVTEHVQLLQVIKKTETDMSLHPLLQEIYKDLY
Sequence of PPARγ ligand binding domain (P37231 234-505): as above
T5 sequence (Q03181 whole entry, the tested form may be a part): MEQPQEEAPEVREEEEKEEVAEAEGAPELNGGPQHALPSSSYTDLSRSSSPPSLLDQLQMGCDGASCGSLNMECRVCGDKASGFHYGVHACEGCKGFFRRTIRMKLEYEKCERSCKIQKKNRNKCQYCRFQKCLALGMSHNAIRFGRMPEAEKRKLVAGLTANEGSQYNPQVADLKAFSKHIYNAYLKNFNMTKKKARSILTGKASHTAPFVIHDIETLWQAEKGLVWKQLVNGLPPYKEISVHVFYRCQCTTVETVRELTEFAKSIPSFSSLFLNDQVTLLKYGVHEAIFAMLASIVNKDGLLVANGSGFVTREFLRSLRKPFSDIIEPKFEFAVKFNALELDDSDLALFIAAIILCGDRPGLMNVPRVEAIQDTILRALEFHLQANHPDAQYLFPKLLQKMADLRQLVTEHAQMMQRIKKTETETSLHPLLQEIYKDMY

effect on apparent affinity of PPARα for the co-activator fragment from CBP ([1]; 10 nM PPAR LBD, CBP (57-454)): increased the apparent affinity
alpha value for the association of PPARα and NCoR [1, 9]: 0.16
effect on apparent affinity of PPARγ for the co-activator fragment from CBP ([2]; CBP (57-454)): increased the apparent affinity
effect on affinity of PPARγ for the co-repressor peptide ([2]; NCoR ID-C): decrease the affinity
effect on apparent affinity of PPARδ for the co-activator fragment from CBP ([3]; 10 nM PPAR LBD, CBP (57-454)): increased the apparent affinity
log α (NCoR association with PPARδ) [3, 9]: 0.14
effect on PPARδ interaction with NCoR [5]: no significant association
promotion of association of PPARδ with RXR [6]: most effective
effect on binding of PPARα LBD to the NCOR and SMRT co-repressor peptides [7]: increase the binding
effect on binding of PPARγ LBD to the NCOR- and SMRT-derived co-repressor peptides [8]: decreased the binding
SMILES: COC(=O)c1ccccc1N[C@@H](Cc1ccc(OCCc2nc(-c3ccccc3)oc2C)cc1)C(=O)O [GW7845]
effect on affinity of PPARα for the co-repressor peptide ([1]; 10 nM PPAR LBD, NCoR ID-C): enhanced the binding; also recorded: slightly increase the affinity
effect on PPARα interaction with NCoR [4]: neither GW1929 nor GW7845 were able to promote association with NCoR
